What all share (format): functional
What all share (settings): read-out: GI

The test system of assay [1] is HeLa. The experiment in a line: Antiproliferative activity against human HeLa cells at 50 ug/ml after 72 hrs by BrdUrd incorporation assay.
Assay [2] deals with HeLa. Nature of the assay: Antiproliferative activity against human HeLa cells at 50 ug/ml after 48 hrs by BrdUrd incorporation assay.
Assay [3] relates to T47D. Nature of the assay: Antiproliferative activity against human T47D cells at 50 ug/ml after 24 hrs by BrdUrd incorporation assay.
For assay [4], the system named is T47D. The experiment in a line: Antiproliferative activity against human T47D cells at 50 ug/ml after 72 hrs by BrdUrd incorporation assay.
The subject of assay [5] is T47D. Nature of the assay: Antiproliferative activity against human T47D cells at 50 ug/ml after 48 hrs by BrdUrd incorporation assay.
Assay [6] concerns HeLa. The experiment in a line: Antiproliferative activity against human HeLa cells at 50 ug/ml after 24 hrs by BrdUrd incorporation assay.

We go through six compounds from ChEMBL document CHEMBL3596165, “Synthesis, structure elucidation and identification of antiproliferative activities of a novel class of thiophene bioisosteres bearing the privileged 7,8-dihydroimidazo[2,1-c][1,2,4]triazin-4(6H)-one scaffold” (Bioorg Med Chem, 2015).

As for `O=c1c(-c2ccco2)nnc2n1CCN2c1ccc(Cl)c(Cl)c1`, the inhibition of growth at 50 µg/mL was determined as 95% in the assay on HeLa [1]; 50% in the assay with HeLa [2]; 10% in the assay with T47D [3]; 40% with T47D [4]; 20% with T47D [5]; 50% in the assay with HeLa [6].

Turning to `O=c1c(-c2ccco2)nnc2n1CCN2c1ccc(Cl)cc1`, the inhibition of growth at 50 µg/mL in the assay with HeLa [1] came out at 90%; with HeLa [2], 75%; in the assay on T47D [3] it was 0%; in the assay on T47D [4], 15%; with T47D [5], 15%; in the assay on HeLa [6], 50%.

For `O=c1c(-c2ccco2)nnc2n1CCN2c1ccccc1Cl`, the inhibition of growth at 50 µg/mL is 100% in the assay with HeLa [1]; 80% in the assay with HeLa [2]; 5% in the assay on T47D [3]; 25% with T47D [4]; 15% with T47D [5]; 80% in the assay with HeLa [6].

Turning to `COc1ccccc1N1CCn2c1nnc(-c1ccco1)c2=O`, the inhibition of growth at 50 µg/mL with HeLa [1] was determined as 80%; with HeLa [2], 35%; with T47D [3], 0%; with T47D [4] it was 70%; in the assay with T47D [5] it was 30%; in the assay on HeLa [6], 25%.

On to `Cc1ccccc1N1CCn2c1nnc(-c1ccco1)c2=O`, for which the inhibition of growth at 50 µg/mL in the assay with HeLa [1] was 50%; with HeLa [2], 25%; with T47D [3], 25%; in the assay with T47D [4] it was 75%; in the assay on T47D [5], 50%; with HeLa [6] it was 25%.

Turning to `O=c1c(-c2ccco2)nnc2n1CCN2c1cccc(Cl)c1`, the inhibition of growth at 50 µg/mL in the assay with HeLa [1] is 95%; in the assay with HeLa [2], 80%; in the assay with T47D [3] it was 20%; in the assay on T47D [4], 80%; in the assay on T47D [5] it was 50%; with HeLa [6], 80%.
